Experimental data: US5445942A, “Amplification assay for hydrolase enzymes” (London Biotechnology Limited, priority 1988, dated 1995)

Legend:
apoglucose oxidase = molecular target: T1, apoglucose oxidase (Aspergillus niger, UniProt P13006); assay: Binding of FAD / FADP by apoglucose oxidase (removal of FAD traces from FADP)
T1 construct: made in house
Protocol: Apoglucose oxidase (2.5 μM) was mixed with FADP (200 μM) at room temperature. After 30 min the mixture was ultrafiltered to yield a sample of FADP containing less than 0.002% FAD.

apoenzyme = assay: Prosthetic-group activity of FADP and its interference with holoenzyme formation from apoenzyme and FAD; type: biochemical; conditions: shelf-stable apoenzymes
From the text: In a preferred embodiment, the prosthetogen is an FAD-phosphate (FADP) and the hydrolase is a phosphatase. This procedure has the great advantage that the prosthetic group, FAD, is formed directly by action of a phosphatase enzyme on the prosthetogen, FADP, without the necessity to add any ancillary converting enzymes.
Suitable apoenzymes include apo-D-aminoacid oxidase and apoglucose oxidase as mentioned above, as well as apo-L-aminoacid oxidase, apoxanthine oxidase and other apoenzymes which will be apparent to those skilled in the art. Apo-D-aminoacid oxidase is a preferred apoenzyme for many applications since it is very shelf-stable, and has kinetic characteristics that permits the technology to be used in a `single pot` format, with all components added as a single promix to analyte-linked alkaline phosphatase. Suitable substrates for it are D-alanine, D-methionine and D-proline. For maximising the sensitivity of the invention without incorporating tail-end cycling components (see below), the use of apoglucose oxidase is advantageous, although its use requires a two stage format in which the first stage, involving hydrolysis of FADP, is operated at pH 8.0 and the second detection stage at a lower pH.

alkaline phosphatase = assay: Hydrolysis of FADP by alkaline phosphatase, product checked by anion exchange elution and apoglucose oxidase reconstitution; type: biochemical; conditions: 10 mM Tris buffer pH 8.0, 1 mM MgCl2, 0.1 mM ZnCl2
From the text: Crude 2'(3')-FADP was isolated by FPLC on a Mono Q HR 10/10 anion exchange column (Pharmacia) with a H2 O/1M ammonium formate (pH 6.5) gradient. The fractions eluting with 0.65-0.8M ammonium formate were pooled and freeze-dried. […] Traces of FAD could be removed by treatment with a suitable apoenzyme followed by ultrafiltration to remove the macromolecules.

D-amino acid oxidase = D-amino acid oxidase (Sus scrofa, UniProt P00371); conditions: same concentration as D-alanine (35 mM), pH 8.0
From the text: Use of apo-D-amino acid oxidase, whose holoenzyme has a pH optimum of 8.0-9.0, allows the above assay to be conducted in a single pot:
The above ingredients may be mixed beforehand and added directly too the alkaline phosphatase.

T1 sequence (P13006 17-605): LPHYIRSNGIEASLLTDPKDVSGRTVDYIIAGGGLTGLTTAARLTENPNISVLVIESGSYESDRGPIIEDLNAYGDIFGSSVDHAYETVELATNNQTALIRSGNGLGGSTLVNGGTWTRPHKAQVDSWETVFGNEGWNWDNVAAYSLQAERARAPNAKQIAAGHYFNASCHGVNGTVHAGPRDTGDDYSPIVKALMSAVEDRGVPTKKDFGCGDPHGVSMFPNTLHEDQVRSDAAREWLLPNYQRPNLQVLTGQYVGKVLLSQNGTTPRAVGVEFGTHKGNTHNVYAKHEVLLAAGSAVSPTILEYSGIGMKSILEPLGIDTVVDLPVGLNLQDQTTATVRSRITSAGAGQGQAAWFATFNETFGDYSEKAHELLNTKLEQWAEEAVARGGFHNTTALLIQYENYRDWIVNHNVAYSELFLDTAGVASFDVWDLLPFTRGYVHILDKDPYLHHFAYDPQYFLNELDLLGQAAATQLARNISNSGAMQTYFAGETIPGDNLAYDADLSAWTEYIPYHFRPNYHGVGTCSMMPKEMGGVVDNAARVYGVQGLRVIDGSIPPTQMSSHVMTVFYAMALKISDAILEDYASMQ
Chain of D-amino acid oxidase (P00371 whole entry): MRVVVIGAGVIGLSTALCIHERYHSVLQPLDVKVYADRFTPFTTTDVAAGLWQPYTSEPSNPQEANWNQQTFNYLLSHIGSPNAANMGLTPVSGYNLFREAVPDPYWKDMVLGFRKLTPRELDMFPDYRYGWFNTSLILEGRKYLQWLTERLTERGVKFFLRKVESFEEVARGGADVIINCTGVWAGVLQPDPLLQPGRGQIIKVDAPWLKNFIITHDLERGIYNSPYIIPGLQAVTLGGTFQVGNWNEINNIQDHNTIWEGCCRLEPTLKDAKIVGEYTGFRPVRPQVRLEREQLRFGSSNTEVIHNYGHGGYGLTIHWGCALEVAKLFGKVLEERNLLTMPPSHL

Molecule | binding by apoglucose oxidase (apoglucose oxidase) | activity per se as a prosthetic group (apoenzyme) | interference with formation of the holoenzyme from apoenzyme and FAD (apoenzyme) | hydrolysis by alkaline phosphatase (alkaline phosphatase) | rate of oxidation relative to D-alanine (D-amino acid oxidase)
FAD-2' (3')-Phosphate [FADP] | does not bind FADP | no significant activity per se as a prosthetic group | does not significantly interfere with the formation of the holoenzyme | acted upon by alkaline phosphatase to give a product that eluted in the same place as FAD and was able to reconstitute apoglucose oxidase | 
O=C(O)[C@H]1CCCN1 [D-proline] |  |  |  |  | 3.0
Cc1cc2nc3c(=O)[nH]c(=O)nc-3n(C[C@H](O)[C@H](O)[C@H](O)COP(=O)(O)OP(=O)(O)OC[C@H]3O[C@@H](n4cnc5c(N)ncnc54)[C@H](O)[C@@H]3O)c2cc1C [FAD, flavin adenine dinucleotide, reference compound] | binds FAD tightly |  |  |  | 
CSCC[C@@H](N)C(=O)O [D-methionine] |  |  |  |  | 2.5
